Format in all cases: biochemical
One test deals with PDE1A (Homo sapiens, UniProt P54750). The test can be described thus: PDE1 inhibition assay (PDE1A). To be noted: 15 nM tritium labelled cAMP, SPA. On the procedure:
(§1) PDE1A, PDE1B and PDE1C assays were performed as follows: the assays were performed in 60 μL samples containing a fixed amount of the PDE1 enzyme (sufficient to convert 20-25% of the cyclic nucleotide substrate), a buffer (50 mM HEPES (4-(2-hydroxyethyl)-1-piperazineethanesulfonic acid) pH 7.6; 10 mM MgCl2; 0.02% Tween20), 0.1 mg/ml BSA (bovine serum albumin), 15 nM tritium labelled cAMP and varying amounts of inhibitors. Reactions were initiated by addition of the cyclic nucleotide substrate, and reactions were allowed to proceed for 1 hr at room temperature before being terminated through mixing with 20 μL (0.2 mg) yttrium silicate SPA beads (PerkinElmer). The beads were allowed to settle for 1 hour in the dark before the plates were counted in a Wallac 1450 Microbeta counter. The measured signals were converted to activity relative to an uninhibited control (100%) and IC50 values were calculated using XlFit (model 205, IDBS).

The next test addresses PDE1B (Homo sapiens, UniProt Q01064). Briefly: PDE1 inhibition assay (PDE1B). To be noted: 15 nM tritium labelled cAMP, SPA. The protocol: as §1
The target in the next test is PDE9 (Homo sapiens, UniProt O76083). Briefly: PDE9 inhibition assay. To be noted: 10 μM of inhibitor. On the procedure:
A PDE9 assay may for example, be performed as follows: The assay is performed in 60 μL samples containing a fixed amount of the relevant PDE enzyme (sufficient to convert 20-25% of the cyclic nucleotide substrate), a buffer (50 mM HEPES pH 7.6; 10 mM MgCl2; 0.02% Tween20), 0.1 mg/ml BSA, 225 pCi of ^3H-labelled cyclic nucleotide substrate, tritium labeled cAMP to a final concentration of 5 nM and varying amounts of inhibitors. Reactions are initiated by addition of the cyclic nucleotide substrate, and reactions are allowed to proceed for one hr at room temperature before being terminated through mixing with 15 μL 8 mg/mL yttrium silicate SPA beads (Amersham). The beads are allowed to settle for one hr in the dark before the plates are counted in a Wallac 1450 Microbeta counter. The measured signal can be converted to activity relative to an uninhibited control (100%) and IC50 values can be calculated using the Xlfit extension to EXCEL.
In the context of the present invention the assay was performed in 60 μL assay buffer (50 mM HEPES pH 7.6; 10 mM MgCl2; 0.02% Tween20) containing enough PDE9 to convert 20-25% of 10 nM ^3H-cAMP, and […] 10 μM of inhibitor. Following 1 hr incubation the reactions were terminated by addition of 15 μL 8 mg/mL yttrium silicate SPA beads (Amersham). The beads were allowed to settle for one hr in the dark before the plates were counted in a Wallac 1450 Microbeta counter.

For another test, the target named is PDE1C (Homo sapiens, UniProt Q14123). Briefly: PDE1 inhibition assay (PDE1C). To be noted: 15 nM tritium labelled cAMP, SPA. On the procedure:
as §1

PDE9, sequence (O76083 whole entry): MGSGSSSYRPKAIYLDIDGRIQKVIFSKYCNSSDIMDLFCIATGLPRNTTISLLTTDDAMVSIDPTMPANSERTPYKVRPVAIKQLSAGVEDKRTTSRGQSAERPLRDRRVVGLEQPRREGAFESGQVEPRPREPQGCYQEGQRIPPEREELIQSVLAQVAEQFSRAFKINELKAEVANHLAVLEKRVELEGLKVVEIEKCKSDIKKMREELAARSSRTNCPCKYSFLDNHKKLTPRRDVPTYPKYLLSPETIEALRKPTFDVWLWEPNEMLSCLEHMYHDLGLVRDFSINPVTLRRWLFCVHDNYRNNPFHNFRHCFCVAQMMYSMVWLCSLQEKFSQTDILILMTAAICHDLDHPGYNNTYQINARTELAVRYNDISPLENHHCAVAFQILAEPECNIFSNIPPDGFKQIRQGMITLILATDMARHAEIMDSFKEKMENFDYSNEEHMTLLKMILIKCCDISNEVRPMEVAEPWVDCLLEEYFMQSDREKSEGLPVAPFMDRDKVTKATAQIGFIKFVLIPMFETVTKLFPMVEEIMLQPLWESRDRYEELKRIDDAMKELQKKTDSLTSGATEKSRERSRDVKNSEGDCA
PDE1A, sequence (P54750 whole entry): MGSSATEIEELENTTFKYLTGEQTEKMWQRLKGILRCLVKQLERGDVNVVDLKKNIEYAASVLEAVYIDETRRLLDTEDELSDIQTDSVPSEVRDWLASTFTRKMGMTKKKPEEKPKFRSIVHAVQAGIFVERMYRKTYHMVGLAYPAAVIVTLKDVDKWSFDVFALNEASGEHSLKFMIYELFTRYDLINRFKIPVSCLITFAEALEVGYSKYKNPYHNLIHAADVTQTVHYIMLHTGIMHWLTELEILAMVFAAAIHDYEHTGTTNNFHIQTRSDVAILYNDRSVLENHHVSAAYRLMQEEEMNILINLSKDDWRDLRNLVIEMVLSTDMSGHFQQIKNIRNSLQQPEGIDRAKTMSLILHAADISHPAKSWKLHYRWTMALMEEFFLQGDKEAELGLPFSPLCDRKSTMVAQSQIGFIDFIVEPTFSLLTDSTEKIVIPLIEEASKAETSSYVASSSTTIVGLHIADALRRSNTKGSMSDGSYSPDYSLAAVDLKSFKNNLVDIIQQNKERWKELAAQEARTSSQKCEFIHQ
PDE1C, sequence (Q14123 whole entry): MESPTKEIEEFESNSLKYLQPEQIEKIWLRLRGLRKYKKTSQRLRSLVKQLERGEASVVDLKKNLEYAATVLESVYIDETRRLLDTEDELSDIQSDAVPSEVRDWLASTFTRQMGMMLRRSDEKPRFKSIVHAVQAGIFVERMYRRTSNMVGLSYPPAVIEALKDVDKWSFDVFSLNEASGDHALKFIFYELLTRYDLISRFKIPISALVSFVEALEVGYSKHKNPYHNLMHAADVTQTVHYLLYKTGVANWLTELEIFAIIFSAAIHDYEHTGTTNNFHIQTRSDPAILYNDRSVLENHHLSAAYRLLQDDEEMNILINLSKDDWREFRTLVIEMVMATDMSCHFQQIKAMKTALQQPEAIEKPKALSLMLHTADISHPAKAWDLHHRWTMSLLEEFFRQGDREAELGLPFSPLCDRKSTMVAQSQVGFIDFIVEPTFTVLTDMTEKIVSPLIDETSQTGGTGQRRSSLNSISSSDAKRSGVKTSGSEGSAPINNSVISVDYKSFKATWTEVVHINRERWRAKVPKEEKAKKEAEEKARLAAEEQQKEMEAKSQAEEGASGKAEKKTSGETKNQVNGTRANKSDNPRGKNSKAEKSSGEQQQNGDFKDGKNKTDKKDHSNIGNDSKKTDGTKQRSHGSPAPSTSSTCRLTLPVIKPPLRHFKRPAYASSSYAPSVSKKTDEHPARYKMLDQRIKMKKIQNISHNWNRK
PDE1B, sequence (Q01064 whole entry): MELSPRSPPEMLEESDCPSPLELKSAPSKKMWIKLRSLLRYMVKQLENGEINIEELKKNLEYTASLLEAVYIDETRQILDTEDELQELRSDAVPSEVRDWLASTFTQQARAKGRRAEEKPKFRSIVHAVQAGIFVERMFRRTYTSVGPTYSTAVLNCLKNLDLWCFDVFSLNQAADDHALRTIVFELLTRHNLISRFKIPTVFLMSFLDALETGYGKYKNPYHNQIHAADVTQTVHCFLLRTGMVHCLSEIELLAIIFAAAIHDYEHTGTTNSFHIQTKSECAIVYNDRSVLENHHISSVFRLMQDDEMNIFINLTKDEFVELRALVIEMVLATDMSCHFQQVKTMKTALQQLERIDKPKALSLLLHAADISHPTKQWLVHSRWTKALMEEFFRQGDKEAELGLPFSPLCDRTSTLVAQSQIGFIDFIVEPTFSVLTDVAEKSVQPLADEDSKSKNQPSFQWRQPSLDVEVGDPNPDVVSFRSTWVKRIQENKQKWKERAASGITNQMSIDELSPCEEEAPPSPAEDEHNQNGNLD

A word on the IC50: it is the midpoint of a concentration-inhibition curve. A lower IC50 goes with greater potency in that assay. By inhibition is commonly meant the drop in the measured response relative to a control, in per cent. Regarding `Cn1c(Cc2ccc(-c3cccc(F)n3)cc2)cn2c(C3CCOCC3)ncc2c1=O` [Example 14, 6-[[4-(6-fluoro-2-pyridyl)phenyl]methyl]-7-methyl-3-tetrahydropyran-4-yl-imidazo[1,5-a]pyrazin-8-one], the IC50 on PDE1A worked out at 62 nM; on PDE1B, 5.2 nM; against PDE1C, 67 nM. For the same compound, the inhibition at 10 µM against PDE9 is 14%.
In the same order, the values of `Cn1c(Cc2ccc(-c3cccc(C(F)F)n3)cc2)cn2c(C3CCOCC3)ncc2c1=O` [Example 15, 6-[[4-[6-(difluoromethyl)-2-pyridyl]phenyl]methyl]-7-methyl-3-tetrahydropyran-4-yl-imidazo[1,5-a]pyrazin-8-one] are 58 nM, 14 nM, 87 nM and 6%.
`COc1cccc(-c2ccc(Cc3cn4c(C5CCOCC5)ncc4c(=O)n3C)cc2)n1` [Example 16, 6-[[4-(6-methoxy-2-pyridyl)phenyl]methyl]-7-methyl-3-tetrahydropyran-4-yl-imidazo[1,5-a]pyrazin-8-one]: the IC50 came out at 24 nM at PDE1A, 4.7 nM at PDE1B and 42 nM at PDE1C. Also, the inhibition at 10 µM against PDE9 stood at 7%.
For `COc1cccnc1-c1ccc(Cc2cn3c(C4CCOCC4)ncc3c(=O)n2C)cc1` [Example 17, 6-[[4-(3-methoxy-2-pyridyl)phenyl]methyl]-7-methyl-3-tetrahydropyran-4-yl-imidazo[1,5-a]pyrazin-8-one], in that order: 87 nM, 21 nM, 161 nM and 2%.
For `Cc1ccccc1-c1ccc(Cc2cn3c(C4CCOCC4)ncc3c(=O)n2C)cc1` [Example 18, 7-methyl-6-[[4-(o-tolyl)phenyl]methyl]-3-tetrahydropyran-4-yl-imidazo[1,5-a]pyrazin-8-one], in that order: 117 nM, 23 nM, 238 nM and 9%.
For `Cn1c(Cc2ccc(-c3ccccc3)cc2)cn2c(C3CCOCC3)ncc2c1=O` [Example 19, 7-methyl-6-[(4-phenylphenyl)methyl]-3-tetrahydropyran-4-yl-imidazo[1,5-a]pyrazin-8-one], in that order: 28 nM, 7.3 nM, 61 nM and 7%.
On to `Cn1cnc(-c2ccc(Cc3cn4c(C5CCOCC5)ncc4c(=O)n3C)cc2)c1` [Example 20, 7-methyl-6-(4-(1-methyl-1H-imidazol-4-yl)benzyl)-3-(tetrahydro-2H-pyran-4-yl)imidazo[1,5-a]pyrazin-8(7H)-one], for which the IC50 was determined as 75 nM on PDE1A, 17 nM on PDE1B and 157 nM against PDE1C. The inhibition at 10 µM at PDE9 is -6%.
In the same order, the values of `CC(C)c1ncc2c(=O)n(C)c(Cc3ccc(-c4cccc(F)n4)cc3)cn12` [Example 21, 6-[[4-(6-fluoro-2-pyridyl)phenyl]methyl]-3-isopropyl-7-methyl-imidazo[1,5-a]pyrazin-8-one] are 36 nM, 13 nM, 93 nM and 13%.
In the same order, the values of `CCCc1ncc2c(=O)n(C)c(Cc3ccc(-c4cccc(F)n4)cc3)cn12` [Example 22, 6-(4-(6-fluoropyridin-2-yl)benzyl)-7-methyl-3-propylimidazo[1,5-a]pyrazin-8(7H)-one] are 168 nM, 40 nM, 310 nM and 2%.
For the compound `CCc1ncc2c(=O)n(C)c(Cc3ccc(-c4cccc(F)n4)cc3)cn12` [Example 23, 3-ethyl-6-(4-(6-fluoropyridin-2-yl)benzyl)-7-methylimidazo[1,5-a]pyrazin-8(7H)-one], the 50% inhibitory concentration (IC50) at PDE1A was 176 nM; at PDE1B, 56 nM; on PDE1C, 578 nM. In addition, the inhibition at 10 µM on PDE9 turned out to be 17%.
For the compound `Cn1c(Cc2ccc(-c3cnccn3)cc2)cn2c(C3CCOCC3)ncc2c1=O` [Example 24, 7-methyl-6-(4-(pyrazin-2-yl)benzyl)-3-(tetrahydro-2H-pyran-4-yl)imidazo[1,5-a]pyrazin-8(7H)-one], the IC50 on PDE1A came out at 91 nM; at PDE1B, 30 nM; against PDE1C it was 198 nM. For the same compound, the inhibition at 10 µM against PDE9 was -2%.
For `Cn1c(Cc2ccc(-c3cccc(F)n3)cc2)cn2c(CC(F)(F)F)ncc2c1=O` [Example 25, 6-(4-(6-fluoropyridin-2-yl)benzyl)-7-methyl-3-(2,2,2-trifluoroethyl)imidazo[1,5-a]pyrazin-8(7H)-one], in that order: 218 nM, 90 nM, 400 nM and 9%.
In the same order, the values of `Cn1c(Cc2ccc(-c3ccncn3)cc2)cn2c(C3CCOCC3)ncc2c1=O` [Example 26, 7-methyl-6-(4-(pyrimidin-4-yl)benzyl)-3-(tetrahydro-2H-pyran-4-yl)imidazo[1,5-a]pyrazin-8(7H)-one] are 68 nM, 16 nM, 149 nM and 14%.

(Values after patent publication US10633382B2, “Imidazopyrazinones, pyrazolopyrimidinones and pyrazolopyridinones as PDE1 inhibitors” (H. Lundbeck A/S, priority 2016, dated 2020).)
